The subject of data set [1] is histamine-induced increase in mouse vascular permeability. Description: Histamine-induced increase in auricular vascular permeability, EB exudation test. Type of data set: in vivo, ICR mice. Particulars: for Ear blue staining compared with histamine model group: observed within 30 min after histamine; for Amount of EB exudation: histamine 5 mg/kg tail vein on 4th day, both ears, n = 10, mean ± SD; for EB exudation reduction rate: histamine 5 mg/kg, vs histamine group. As for the experimental part: ICR mice are divided into 6 groups, including a negative control group (control): physiological saline is administered by gavage for 3 days, and on the 4th day, the physiological saline is administered by tail vein injection; a histamine model group (histamine): the physiological saline is administered by the gavage for 3 days, and 5 mg/kg of the histamine is administered by the tail vein injection on the 4th day; an AA-IVa low-dose treatment group (histamine+AA-IVa/L): 5 mg/kg of AA-IVa is administered by the gavage for 3 days, and 5 mg/kg of the histamine is administered by the tail vein injection on the 4th day; and an AA-IVa high-dose treatment group (histamine+AA-IVa/H): 10 mg/kg of AA-IVa is administered by the gavage for 3 days, and 5 mg/kg of the histamine is administered by the tail vein injection on the 4th day.
AA-Iva: 0.5 wt % CMC-Na is used for preparation, and the concentration is 0.5 mg/ml and 0.25 mg/ml respectively. Histamine: 0.5 mg/ml of histamine solution is prepared with the physiological saline.
4.3 Modeling Method • (1) Principle: the histamine may cause an increase in permeability of capillary and venule walls, and plasma leaks into tissues, leading to local tissue edema. EB is a commonly used indicator for detecting the vascular permeability. After intravenous injection of mixed solution of histamine and EB into the mice, the increase in the vascular permeability caused by the histamine may be observed in a mouse auricle (the auricle is stained blue). • (2) Method for establishing model of increased auricular vascular permeability induced by histamine: after the histamine (0.5 mg/ml) is mixed with 0.8% EB solution at a ratio of 1:1 (volume), the tail vein injection is performed at 20 ml/kg of a volume according to the weight of each mouse. The auricular blue staining condition of the mouse is observed within 30 min after the histamine is administered, and a picture of the auricular blue staining is taken. • (3) Auricular vascular permeability test (EB exudation test): after the above auricular blue staining is observed and photographed, both ears are cut, and cut into pieces. After being soaked in 2 ml of formamide at a room temperature for 48 h, it is filtered with a 200-mesh stainless steel sieve. A filtrate is taken, and the absorbance (A) is measured at 610 nm. According to an EB standard curve, the amount (μg) of EB dye exudation is calculated.
EB exudation reduction rate (%)=(average value of EB exudation in histamine group−average value of EB exudation in administration group)/average value of EB exudation in histamine group×100%.
Statistical analysis is performed by using SPSS 20.0 software. The variance analysis is performed on the amount of EB exudation from the auricle tissue by using an ANOVA program. Data is expressed as mean±standard deviation (x±S), the histamine model group is compared with the control group, and each administration group is compared with the histamine model group, P<0.05 is considered as a significant difference.
ICR mice are divided into 4 groups, including a negative control group (control) (1): physiological saline is administered by gavage for 3 days, and on the 4th day, the physiological saline is administered by tail vein injection; a histamine model group (histamine) (2): the physiological saline is administered by the gavage for 3 days, and on the 4th day, 5 mg/kg of the histamine is administered by the tail vein injection; an AA-I treatment group (histamine+AA-I) (3): 10 mg/kg of AA-I is administered by the gavage for 3 days, and on the 4th day, 5 mg/kg of the histamine is administered by the tail vein injection; and an AA-II treatment group (histamine+AA-II) (4): 10 mg/kg of AA-II is administered by the gavage for 3 days, and on the 4th day, 5 mg/kg of the histamine is administered by the tail vein injection.
Preparation of AA-I and AA-II: 0.5 wt % CMC-Na is used to prepare AA-I and AA-II into 0.5 mg/ml respectively.

The test system of data set [2] is histamine-induced pneumonia (lung tissue inflammatory exudation). Kind of data set: Histamine-induced pneumonia, pathological examination of lung tissue. The settings on record: histamine 5 mg/kg, HE pathology. Type of data set: in vivo, ICR mice. From the text:
1. Experimental Method • (1) Model establishment, animal grouping and administration are the same as Embodiment 1. • (2) Pathological examination of lung tissue: after the mouse is euthanized due to vertebral detachment, it is dissected, and the lung tissue is taken out. The lung tissue is fixed with 10% neutral formalin for standby. After being fully fixed with formaldehyde, the submitted tissue is dehydrated step by step with ethanol, transparent with xylene, embedded with paraffin, and prepared conventionally into 3 μm of a paraffin section. HE, Masson, and PAS staining are used respectively, and the tissue inflammation exudation conditions are examined under an optical microscope (DP71 type, OLYMPUS, magnified by 400 times).
1. Experimental Method • (1) Model establishment, animal grouping and administration are the same as Contrast example 1. • (2) Pathological examination of lung tissue: same as Embodiment 2.

Another data set has as its system ICR mice. Description: Toxicity test, single gavage, death within 14 days and renal pathology. Type of data set: in vivo. The settings on record: 40 mg/kg once by gavage; for Death rate / Number of dead animals: 10 animals, within 14 days; for Renal pathological examination: survived animals after 14 days. As for the experimental part:
SPF-grade ICR mice are used, 18-22 g, with half male and half female. The animals are sourced from Beijing Vital River Laboratory Animal Technology Co., Ltd. After 1 day of adaptive feeding, the test substance is administered.
The mice are randomly divided into 4 groups: a control group (physiological saline is administered once by gavage) (1); an AA-I group (40 mg/kg of AA-I is administered once by the gavage) (2); an AA-II group (40 mg/kg of AA-II is administered once by the gavage) (3); and an AA-Iva group (40 mg/kg of AA-IVa is administered once by the gavage) (4).
Before the animals are administered by the gavage, it is fasted for 12 h without water deprivation. After being administered by the gavage, the animal death conditions within 14 days are recorded after the gavage administration. Survived animals are dissected, and kidneys are taken for the pathological examination.

[3] abbreviates: drug 10 mg/kg by gavage for 3 days.
Where [4] appears, read: drug 5 mg/kg by gavage for 3 days.

Turning to `COc1cccc2c1cc([N+](=O)[O-])c1c(C(=O)O)cc3c(c12)OCO3` [AA-I, Aristolochic Acid I], in data set [1] (10 mg/kg by gavage for 3 days), the “Amount of EB exudation compared to histamine model group (in words)” value is “no significant difference” and the “Ear blue staining compared with histamine model group” value is recorded as “no significant difference”. In data set [1] (setting [3]), the “Amount of EB exudation” value came out at 1.01 ± 0.28 µg and the “EB exudation reduction rate” value came to 14.4%. Further, the “Thickening of alveolar septa and exudation of inflammatory cells in lung tissue compared to model group” value (from here on “Thickening … compared to model group”) in data set [2] (10 mg/kg by gavage for 3 days) is reported as “no significant difference compared to the histamine model group”. In the data set with ICR mice, the Death rate stood at 70%, the “Number of dead animals” value is reported as 7 and the Renal pathological examination entry is “diffuse tubular necrosis”.

For `O=C(O)c1cc2c(c3c1c([N+](=O)[O-])cc1ccccc13)OCO2` [AA-II, Aristolochic Acid II], in data set [1] (10 mg/kg by gavage for 3 days), the “Amount of EB exudation compared to histamine model group (in words)” value is listed as “no significant difference” and the “Ear blue staining compared with histamine model group” value is recorded as “no significant difference”. In addition, in data set [1] (setting [3]), the “Amount of EB exudation” value is 1.09 ± 0.34 µg and the “EB exudation reduction rate” value turned out to be 7.6%. In addition, the “Thickening … compared to model group” value in data set [2] (10 mg/kg by gavage for 3 days) is “no significant difference compared to the histamine model group”. For the same compound, in the data set with ICR mice, the Death rate is given as 10%; the “Number of dead animals” value is reported as 1; the Renal pathological examination result was “patchy tubular necrosis and tubular swelling”.

With `COc1cc(O)cc2c1cc([N+](=O)[O-])c1c(C(=O)O)cc3c(c12)OCO3` [AA-IVa, aristolochic acid IVa], the “Amount of EB exudation compared to histamine model group (in words)” value in data set [1] (different doses (5 and 10 mg/kg by gavage for 3 days), P<0.001) is recorded as “significantly decreased”. Also, the “Ear blue staining compared with histamine model group” value in data set [1] (different doses (5 and 10 mg/kg by gavage for 3 days)) was “significantly reduced”. For the same compound, the “Amount of EB exudation” value in data set [1] (setting [4]) came out at 0.93 ± 0.20 µg; in data set [1] (setting [3]), 0.82 ± 0.25 µg. The figures for the “EB exudation reduction rate” value in data set [1] (setting [4]) and in data set [1] (setting [3]) were 36.7% and 44.2%, respectively. In addition, the “Thickening … compared to model group” value in data set [2] (5 mg/kg by gavage for 3 days) and in data set [2] (10 mg/kg by gavage for 3 days) was “significant reduction compared to the model group” throughout. In addition, the Renal pathological examination entry in the data set with ICR mice was “no toxic damage”.
